Results from patent US12624013B2, “Purification of 2,5-furandicarboxylic acid, dimethyl ester and other esterified products” (Archer Daniels Midland Company, priority 2020, dated 2026).

Legend:
Assay type in all cases: physicochemical
[1] = Solubility of FDME in various solvents (sonicated 15 minutes at 35° C.); conditions: for Solubility remarks / FDME solubility limits: 35° C.
Procedure: An impure solid FDME sample, obtained from the esterification of FDCA with methanol, was determined to have 82.6 wt-% FDME (dimethyl ester), in addition to 10.4 wt-% of the monomethyl ester, FDMME, resulting from incomplete esterification. The sample also contained 0.35 wt-% of the FDCA starting compound and 0.58 wt-% of the aldehyde contaminant, FFME. In separate solubility studies with different solvents, various amounts of this sample were charged to a scintillation vial, and in each case 10 ml of solvent was added.

[2] = CIE 1976 (L*a*b*) colorimetry of stored purified FDME composition; conditions: after storage over 3 years in ambient air
Procedure: In this regard, the color of the purified FDME composition was evaluated quantitatively by determining its chromaticity coordinates in the L*a*b* color space. This refers to a particular color space of different color systems of the CIE, or Commission Internationale de l'Echairage (International Commission of Illumination), which color systems were developed as a way to standardize color, or express color values numerically, and thereby remove the subjectivity of the human observer. The CIE 1976 (L*a*b*) color space is based on the opponent-colors theory of color vision, according to which two colors cannot be both green and red at the same time, nor blue and yellow at the same time. Therefore, single values can be used to describe the red/green and the yellow/blue attributes of a sample. In this regard, when a color is expressed using the L a*b* color space, the respective coordinates of L*, a*, and b* denote lightness, the red/green value, and the yellow/blue value, with these coordinates ranging from −100 to +100. For purposes of characterizing compositions described herein with respect to yellow color, the value of b* is particularly relevant. The assessment of the L*, a*, and b* coordinates of the purified FDME composition was performed using a commercially available colorimeter from Konica Minolta, model CM-5.
(§1) To prepare a first sample, Sample #1, of the purified FDME composition for color analysis, a 0.597 gram portion of the composition was dissolved in 9.414 grams of a solvent mixture of 1:1 (v/v) acetonitrile/isopropanol, such that Sample #1 contained 5.96 wt-% of the dissolved composition. A second sample, Sample #2 was prepared by dissolving a 0.592 gram portion of the composition in 9.406 grams of this solvent, such that Sample #2 contained 5.92 wt-% of the dissolved composition. For each sample having a target concentration of 6 wt-% dissolved solids, two CIE 1976 (L*a*b*) colorimetry measurements and two APHA measurements were performed.

[3] = Room temperature solubility of FDME in methanol; conditions: content of mother liquor
Procedure: The combination of filtration with diatomaceous earth and crystallization was investigated for its effectiveness in purifying a crude composition of FDME, having weight percentages of individual compounds as described in Example 1. A 105 gram sample of this crude composition was ground and dissolved in 700 ml of methanol to provide a 15 wt-% stock solution of the crude composition, which was maintained at 55° C. in a water bath with shaking. A 300 gram portion of this stock solution was removed and diluted to 2 wt-% dissolved solids, or approximately the room temperature solubility, and filtered on a 2″ diatomaceous earth (DE) filter using a Buchner funnel. Following this DE filtration, the solution was concentrated back to 20 wt-% in a crystallizer using a vacuum pump to evaporate the methanol solvent. […] Stirring at 100 rpm was maintained during the cooling, and the particle size distribution was determined in real time. […] It was determined that a 2-hour residence time at 35° C. and subsequent cooling to 30° C. leads to significant nucleation. […]
The solids from crystallization were emptied onto a Buchner funnel filter, and the crystals were sprayed with room temperature methanol. […] Following this single stage of crystallization, 67% of the FDME from the crude composition was recovered in the purified composition, which was determined to be 99.05 wt-% FDME and 0.86 wt-% FDMME. […]

[4] = APHA color (ASTM D1209) of stored purified FDME composition; conditions: Average of Samples #1 and #2, two measurements each; after storage over 3 years in ambient air
Procedure: Another color measurement, which is referred to as APHA color, was also determined for the purified FDME composition according to ASTM D1209. APHA color is also known as the Hazen scale, as well as the platinum cobalt (Pt/Co) scale. APHA is a color standard named for the American Public Health Association that was originally intended to describe the color of wastewater, but its usage has expanded to include other applications. APHA color is a color scale sometimes referred to as a “yellowness index” that is used to assess the quality of liquids that are clear to yellowish in color.
as §1

[5] = Storage stability of purified FDME crystals in ambient air; conditions: 3.5 years
Procedure: A 200 gram sample of a dried, impure mixture (crude composition comprising FDME) obtained from the esterification of FDCA with methanol to FDME was added to a 500 ml Erlenmeyer flask equipped with a PTFE magnetic stir bar. This solid composition was determined by UPLC-PDA to be 80 wt-% FDME, 18 wt-% FDMME, and 2 wt-% FDCA. Approximately 100 ml of methylene chloride was added to the flask, followed by 100 ml of 5 wt-% sodium bicarbonate. The biphasic solution was vigorously stirred for 30 minutes and transferred to a 1 liter separatory flask, which was used to remove the bottom organic phase. The top aqueous phase was extracted 2 times with additional extraction quantities, 30 ml each, of methylene chloride. These additional extraction quantities were combined with the organic phase, and the combined liquids were transferred to a 500 ml Wheaton bottle and placed in the freezer overnight. […] The retained crystals were dried with a stream of argon for 1 hour, determined to have a weight of 58.7 grams, and then stored in a 250 ml Wheaton bottle. A purity analysis of the crystals of the purified composition was carried out by quantitative ^1H NMR, indicating these to be 99.98 wt-% pure. The crystals were stored in ambient air and in a bottle on a tabletop.

[6] = Average of Samples #1 and #2, two measurements each
[7] = single measurements, about 6 wt-% in 1:1 (v/v) acetonitrile/isopropanol

For `COC(=O)c1ccc(C(=O)OC)o1` [FDME, 2,5-furandicarboxylic acid, dimethyl ester], the “Solubility of crude compositions, summary in words” value ([1]; in methylene chloride, acetonitrile, N,N′-dimethylformamide, 1,4-dioxane, 1,1,2,2-tetrachloroethane, ethyl acetate, tetrahydrofuran, pyridine, acetone, dimethyl sulfoxide) was “favorable solubility”, the Solubility remarks ([1]; solvent 1,1,2,2-tetrachloroethane) was “Very soluble” and the FDME solubility limits ([1]; solvent 1,1,2,2-tetrachloroethane, impure FDME sample (82.6 wt-% FDME)) was 23-27 wt-%. The FDME solubility limits ([1]; solvent 1,3-Propanediol) was less than 8 wt-%, the Solubility remarks ([1]; solvent 1,3-Propanediol) was “Insoluble” and the FDME solubility limits ([1]; solvent 1,4-Dioxane) was 23-28 wt-%. For the same compound, the Solubility remarks ([1]; solvent 1,4-Dioxane) was “Very soluble”, the FDME solubility limits ([1]; solvent Acetone) was 12-20 wt-% and the Solubility remarks ([1]; solvent Acetone) was “Soluble”. The FDME solubility limits ([1]; solvent Acetonitrile) was greater than 39 wt-%, the Solubility remarks ([1]; solvent Acetonitrile) was “Exceptionally soluble” and the FDME solubility limits ([1]; solvent Dimethyl sulfoxide) was 9-13 wt-%. For the same compound, the Solubility remarks ([1]; solvent Dimethyl sulfoxide) was “Soluble”, the FDME solubility limits ([1]; solvent Ethanol) was less than 10 wt-% and the Solubility remarks ([1]; solvent Ethanol) was “Insoluble”. For the same compound, the FDME solubility limits ([1]; solvent Ethyl Acetate) was 18-25 wt-%, the Solubility remarks ([1]; solvent Ethyl Acetate) was “Very soluble” and the FDME solubility limits ([1]; solvent Ethylene Glycol) was less than 8 wt-%. The Solubility remarks ([1]; solvent Ethylene Glycol) was “Insoluble”, the FDME solubility limits ([1]; solvent Methanol) was less than 11 wt-% and the Solubility remarks ([1]; solvent Methanol) was “Insoluble”. The FDME solubility limits ([1]; solvent Methyl-t-butyl ether) was less than 10 wt-%, the Solubility remarks ([1]; solvent Methyl-t-butyl ether) was “Insoluble” and the FDME solubility limits ([1]; solvent Methylene Chloride) was 27-31 wt-%. For the same compound, the Solubility remarks ([1]; solvent Methylene Chloride) was “Very soluble”, the FDME solubility limits ([1]; solvent N,N′-dimethylformamide) was 30-35 wt-% and the Solubility remarks ([1]; solvent N,N′-dimethylformamide) was “Very soluble”. The FDME solubility limits ([1]; solvent Pyridine) was 17-23 wt-%, the Solubility remarks ([1]; solvent Pyridine) was “Very soluble” and the FDME solubility limits ([1]; solvent THF) was 17-23 wt-%. For the same compound, the Solubility remarks ([1]; solvent THF) was “Very soluble”, the FDME solubility limits ([1]; solvent Toluene) was less than 10 wt-% and the Solubility remarks ([1]; solvent Toluene) was “Insoluble”. For the same compound, the “L*” value [2, 6] was 99.43, the “a*” value [2, 6] was −0.01 and the “b*” value [2, 6] was 0.39. The “L*” value [2, 7] was greater than 99, the “a*” value [2, 7] was less than 0.5 and the “b*” value [2, 7] was less than 0.5. The “Room temperature solubility in methanol” value [3] was “approximately 2 wt-%”, the Hazen/APHA [4] was 12 and the “Purity on storage (stability)” value ([5]; crystals initially 99.98 wt-% pure, stored in ambient air in a bottle on a tabletop) was “maintained”. For the same compound, the “Appearance on storage (color stability, flow)” value ([5]; stored in ambient air) was “very little development of off-white color”.
